Reference: patent publication US20090306218A1, “Antimicrobial formulations” (priority 2006, published 2009)
Read-outs that look alike come from different tables or passages of the source.

Experiments:
[1] = system: Propionibacterium acnes NCTC 737; test: Disc diffusion assay (DDA); type: cell-based; conditions: for zone of inhibition at 200 µg/disc: Cutibacterium acnes, NCTC737, read-out: DDA (zone of inhibition diameter); for DDA (zone of inhibition diameter): P. acnes NCTC 737
Experimental: (d) Disc Diffusion Assay (DDA)
This is an internationally recognised standard method for qualitatively assessing the antimicrobial activity of a compound.
A sterile paper disc was impregnated with a sample of the test compound in a suitable solvent and 30 minutes allowed for the solvents to evaporate (where possible). The disc was then placed on an agar plate onto which the test micro-organism had been inoculated. The plate was then incubated under the conditions described above, following which it was examined visually for signs of microbial growth. […] The diameter of this zone of “inhibition” was measured using a ProtoCOL™ automated zone sizer (Synbiosis, Cambridge, UK).
(§1) The TBHQ was dissolved in ethanol and the bismuth salts in DMSO.
(§2) All the (S)DDA experiments were conducted in triplicate.
(§3) DDA assays, as described above, were carried out using each of the test compounds individually. The quinone/bismuth salt combinations were then subjected to the SDDA assay described above.
(§4) The quinones and bismuth salts were all dissolved in DMSO.

[2] = system: P. granulosum panel strains; test: Agar dilution MIC assay, panel of propionibacteria; type: cell-based, Propionibacterium granulosum
[3] = system: P. acnes PRP panel strains; type: cell-based, Propionibacterium acnes
[4] = system: Propionibacterium acnes NCTC 737; test: Synergy disc diffusion assay (SDDA); type: cell-based; conditions: P. acnes NCTC 737; for SDDA with TBHQ (zone diameter): bismuth salt together with TBHQ, 200 μg of each per disc; for SDDA increase: combination with TBHQ vs the single compound with the larger zone; for SDDA area increase: combination with TBHQ
Experimental: (e) Synergy Disc Diffusion Assay (SDDA)
Each bismuth salt was then subjected, together with the TBHQ, to the SDDA assay described above.
as §1, §2, §3, §4

[5] = system: Propionibacterium acnes NCTC 737; test: Minimum inhibitory concentration (MIC) assay, liquid medium; type: cell-based; conditions: P. acnes NCTC 737
Experimental: (a) Minimum Inhibitory Concentration (MIC) Assay
This is a standard international method for quantitatively assessing the antimicrobial activity of a compound in a liquid medium. The method used a sterile 96-well microtitre plate, capable of holding about 200 μl of liquid per well. […] The culture medium was as described above.
After incubation, the microtitre plate was examined visually (with the aid of a light box) for cloudiness in each well, which would indicate microbial growth. The MIC value was recorded as the lowest concentration of test compound required to inhibit microbial growth, i.e., the lowest concentration for which the liquid in the well remained clear.
The assays were conducted in duplicate (minimum) and included both negative (culture medium with no micro-organisms) and positive (culture medium plus diluting solvent plus micro-organism) controls.
(§5) MIC, MBC and DDA assays, as described above, were carried out using the test compound t-butyl-p-hydroquinone (TBHQ) and a range of bismuth salts (all ex-Sigma Aldrich, UK).

[6] = system: Propionibacterium acnes NCTC 737; test: Minimum bactericidal concentration (MBC) assay; type: cell-based; conditions: P. acnes NCTC 737
Experimental: (b) Minimum Bactericidal Concentration (MBC) Assay
as §5

[7] = P. granulosum NCTC 11865, resistance phenotype None
[8] = P. granulosum PRP-005, resistance phenotype MLSK
[9] = P. granulosum PRP-006, resistance phenotype MLS
[10] = P. granulosum PRP-019, resistance phenotype MLSK
[11] = P. granulosum PRP-021, resistance phenotype MLS
[12] = P. granulosum PRP-043, resistance phenotype MLS
[13] = P. granulosum PRP-044, resistance phenotype MLS
[14] = P. granulosum PRP-055, resistance phenotype None
[15] = P. acnes PRP-002, resistance phenotype Tet/MLS
[16] = P. acnes PRP-003, resistance phenotype Tet
[17] = P. acnes PRP-004, resistance phenotype Tet
[18] = P. acnes PRP-007, resistance phenotype Clin
[19] = P. acnes PRP-008, resistance phenotype Clin
[20] = P. acnes PRP-010, resistance phenotype MLSK
[21] = P. acnes PRP-017, resistance phenotype MLS
[22] = P. acnes PRP-023, resistance phenotype MLSK
[23] = P. acnes PRP-026, resistance phenotype MLS
[24] = P. acnes PRP-039, resistance phenotype Tet/MLS
[25] = P. acnes PRP-046, resistance phenotype None
[26] = P. acnes PRP-053, resistance phenotype Tet/MLS
[27] = P. acnes PRP-059, resistance phenotype MLS
[28] = P. acnes PRP-068, resistance phenotype Ery
[29] = P. acnes PRP-101, resistance phenotype Tet/MLS
[30] = P. acnes PRP-102, resistance phenotype Tet/MLS
[31] = 200 μg per disc (2-t-butyl-p-benzoquinone 100 μg per disc), in DMSO, Table 5

Compound: CC1=CC(=O)C=CC1=O [Methyl-p-benzoquinone]
- zone of inhibition at 200 µg/disc [1]: 39.9 mm

Compound: O=C1C=CC(=O)C(Cl)=C1 [2-chloro-p-benzoquinone]
- zone of inhibition at 200 µg/disc [1]: 25.4 mm

Compound: O=C([O-])CC(O)(CC(=O)[O-])C(=O)[O-].[Bi+3] [Bismuth citrate]
- MIC (agar dilution) [2, 7]: 7.8 µg/mL
- MIC (agar dilution) [2, 8]: 7.8 µg/mL
- MIC (agar dilution) [2, 9]: 7.8 µg/mL
- MIC (agar dilution) [2, 10]: 7.8 µg/mL
- MIC (agar dilution) [2, 11]: 7.8 µg/mL
- MIC (agar dilution) [2, 12]: 3.9 µg/mL
- MIC (agar dilution) [2, 13]: 7.8 µg/mL
- MIC (agar dilution) [2, 14]: 7.8 µg/mL
- MIC (agar dilution) [3, 15]: 7.8 µg/mL
- MIC (agar dilution) [3, 16]: 3.9 µg/mL
- MIC (agar dilution) [3, 17]: 7.8 µg/mL
- MIC (agar dilution) [3, 18]: 3.9 µg/mL
- MIC (agar dilution) [3, 19]: 3.9 µg/mL
- MIC (agar dilution) [3, 20]: 7.8 µg/mL
- MIC (agar dilution) [3, 21]: 3.9 µg/mL
- MIC (agar dilution) [3, 22]: 3.9 µg/mL
- MIC (agar dilution) [3, 23]: 3.9 µg/mL
- MIC (agar dilution) [3, 24]: 0.98 µg/mL
- MIC (agar dilution) [3, 25]: 3.9 µg/mL
- MIC (agar dilution) [3, 26]: 3.9 µg/mL
- MIC (agar dilution) [3, 27]: 7.8 µg/mL
- MIC (agar dilution) [3, 28]: 7.8 µg/mL
- MIC (agar dilution) [3, 29]: 7.8 µg/mL
- MIC (agar dilution) [3, 30]: 7.8 µg/mL
- SDDA with TBHQ (zone diameter) ([4]; Table 2): 43.41 mm
- SDDA increase ([4]; Table 2): 8.94 mm
- SDDA area increase ([4]; Table 2): 58.59%
- MIC ([5]; Table 1): 0.98 µg/mL
- MBC ([6]; Table 1): 7.8 µg/mL
- MIC/MBC ratio ([6]; Table 1): 0.125
- DDA (zone of inhibition diameter) [1, 31]: 32.97 mm
- DDA (zone of inhibition diameter) ([1]; 200 μg per disc, Table 2): 34.47 mm

Compound: O=[N+]([O-])[O-].O=[N+]([O-])[O-].O=[N+]([O-])[O-].O=[N+]([O-])[O-].[Bi+3].[Bi+3].[Bi+3].[Bi+3].[Bi+3].[O-2].[OH-].[OH-].[OH-].[OH-].[OH-].[OH-].[OH-].[OH-].[OH-] [Bismuth subnitrate]
- MIC (agar dilution) [2, 7]: 7.8 µg/mL
- MIC (agar dilution) [2, 8]: 7.8 µg/mL
- MIC (agar dilution) [2, 9]: 7.8 µg/mL
- MIC (agar dilution) [2, 10]: 7.8 µg/mL
- MIC (agar dilution) [2, 11]: 7.8 µg/mL
- MIC (agar dilution) [2, 12]: 7.8 µg/mL
- MIC (agar dilution) [2, 13]: 7.8 µg/mL
- MIC (agar dilution) [2, 14]: 7.8 µg/mL
- MIC (agar dilution) [3, 15]: 7.8 µg/mL
- MIC (agar dilution) [3, 16]: 7.8 µg/mL
- MIC (agar dilution) [3, 17]: 7.8 µg/mL
- MIC (agar dilution) [3, 18]: 7.8 µg/mL
- MIC (agar dilution) [3, 19]: 7.8 µg/mL
- MIC (agar dilution) [3, 20]: 7.8 µg/mL
- MIC (agar dilution) [3, 21]: 7.8 µg/mL
- MIC (agar dilution) [3, 22]: 7.8 µg/mL
- MIC (agar dilution) [3, 23]: 7.8 µg/mL
- MIC (agar dilution) [3, 24]: 7.8 µg/mL
- MIC (agar dilution) [3, 25]: 7.8 µg/mL
- MIC (agar dilution) [3, 26]: 7.8 µg/mL
- MIC (agar dilution) [3, 27]: 7.8 µg/mL
- MIC (agar dilution) [3, 28]: 7.8 µg/mL
- MIC (agar dilution) [3, 29]: 7.8 µg/mL
- MIC (agar dilution) [3, 30]: 7.8 µg/mL
- SDDA with TBHQ (zone diameter) ([4]; Table 4): 30.39 mm
- SDDA increase ([4]; Table 4): 5.48 mm
- SDDA area increase ([4]; Table 4): 48.84%
- MIC ([5]; separate experiment, Table 3): 3.9 µg/mL
- MBC ([6]; separate experiment, Table 3): 7.8 µg/mL
- MIC/MBC ratio ([6]; separate experiment, Table 3): 0.5
- DDA (zone of inhibition diameter) [1, 31]: 24.91 mm
- DDA (zone of inhibition diameter) ([1]; 200 μg per disc, separate experiment, Table 4): 24.91 mm

Compound: [Cl][Bi]([Cl])[Cl] [Bismuth chloride]
- SDDA with TBHQ (zone diameter) ([4]; Table 2): 31.64 mm
- SDDA increase ([4]; Table 2): 5.57 mm
- SDDA area increase ([4]; Table 2): 47.29%
- MIC ([5]; Table 1): 0.49 µg/mL
- MBC ([6]; Table 1): 3.9 µg/mL
- MIC/MBC ratio ([6]; Table 1): 0.125
- DDA (zone of inhibition diameter) ([1]; 200 μg per disc, Table 2): 26.07 mm

Compound: CC(=O)[O-].CC(=O)[O-].CC(=O)[O-].[Bi+3] [Bismuth acetate]
- SDDA with TBHQ (zone diameter) ([4]; Table 2): 34.89 mm
- SDDA increase ([4]; Table 2): 6.72 mm
- SDDA area increase ([4]; Table 2): 53.4%
- MIC ([5]; Table 1): 0.98 µg/mL
- MBC ([6]; Table 1): 7.8 µg/mL
- MIC/MBC ratio ([6]; Table 1): 0.125
- DDA (zone of inhibition diameter) ([1]; 200 μg per disc, Table 2): 28.17 mm

Compound: CC(C)(C)C1=CC(=O)C=CC1=O [2-t-butyl-p-benzoquinone]
- DDA (zone of inhibition diameter) [1, 31]: 52.61 mm
